Where “and” joins values, the source holds several entries; their conditions need not be identical. Identical values can stand only once. Like-named read-outs stand apart in the source and are kept apart here.
Test: Pharmacokinetics in CD-1 mice (plasma concentrations, PK parameters)
Format: in vivo
Experimental: Pharmacokinetics for I-127, I-172 and I-210 were determined in Sprague Dawley rats or CD-1 mice by dosing intravenous (IV), subcutaneous (SC) or per oral (PO) using facility SOPs and sampling plasma at required time points. Species, formulation, route of administration and time points samples are listed below for each compound.
Compounds were extracted from plasma, injected on reverse phase HPLC, eluted with a gradient from 5% to 95% acetonitrile in water and quantified by mass spectrometry with internal standard. Data are expressed in ng compound per mL of plasma.

[1] = mouse (CD1) iv 2 mg/kg, individual Mouse 1-3, 2 mg/kg
[2] = mouse (CD1) po 30 mg/kg, individual Mouse 4-6, 30 mg/kg
[3] = mouse (CD1) sc 30 mg/kg, individual Mouse 7-9, 30 mg/kg

- Tmax (CD-1, mouse, plasma, sc, 30 mg/kg, mouse (CD1) sc 30 mg/kg, Mean, read-out: Tmax): 2.33 h
- half-life (CD-1, mouse, plasma, sc, 30 mg/kg, mouse (CD1) sc 30 mg/kg, individual Mouse 7-9): 4.34 h
- AUC(0-inf) (CD-1, mouse, plasma, sc, 30 mg/kg, mouse (CD1) sc 30 mg/kg, individual Mouse 7-9, read-out: AUCInf): 1 µg·h/mL
- AUC(0-t) (CD-1, mouse, plasma, sc, 30 mg/kg, mouse (CD1) sc 30 mg/kg, individual Mouse 7-9, read-out: AUClast): 0.98 µg·h/mL
- Cmax (CD-1, mouse, plasma, sc, 30 mg/kg, mouse (CD1) sc 30 mg/kg, individual Mouse 7-9, read-out: Cmax): 0.107 µg/mL
- MRT inf (CD-1, mouse, plasma, sc, 30 mg/kg, mouse (CD1) sc 30 mg/kg, individual Mouse 7-9, read-out: MRTInf_obs): 6.06 h
- Concentration (mouse (CD1) iv 2 mg/kg, 5 min, individual Mouse 1-3, 2 mg/kg): 0.495 µg/mL and 0.692 µg/mL
- Concentration (mouse (CD1) iv 2 mg/kg, 0.25 h, individual Mouse 1-3, 2 mg/kg): 0.382 µg/mL and 0.424 µg/mL
- Concentration (mouse (CD1) iv 2 mg/kg, 0.5 h, individual Mouse 1-3, 2 mg/kg): 0.238 µg/mL and 0.306 µg/mL
- Concentration (mouse (CD1) iv 2 mg/kg, 1 h, individual Mouse 1-3, 2 mg/kg): 0.164 µg/mL and 0.195 µg/mL
- Concentration (mouse (CD1) iv 2 mg/kg, 2 h, individual Mouse 1-3, 2 mg/kg): 0.0925 µg/mL and 0.0907 µg/mL
- Concentration (mouse (CD1) iv 2 mg/kg, 4 h, individual Mouse 1-3, 2 mg/kg): 0.0202 µg/mL and 0.0256 µg/mL
- Concentration (mouse (CD1) iv 2 mg/kg, 8 h, individual Mouse 1-3, 2 mg/kg): 0.00492 µg/mL and 0.00493 µg/mL
- Concentration (mouse (CD1) iv 2 mg/kg, 24 h, individual Mouse 1-3): BLOQ
- AUC_%Extrap_obs (mouse (CD1) iv 2 mg/kg, Mean): 1.66%
- AUClast/D (mouse (CD1) iv 2 mg/kg, Mean): 331 h·ng/mL per mg/kg
- Cl_obs (mouse (CD1) iv 2 mg/kg, Mean): 2.99 L/h/kg
- Vss_obs (mouse (CD1) iv 2 mg/kg, Mean): 4.48 L/kg
- AUCInf [1]: 0.597 µg·h/mL and 0.706 µg·h/mL
- AUC_%Extrap_obs [1]: 1.76% (2×) and 1.47%
- AUClast [1]: 0.586 µg·h/mL and 0.695 µg·h/mL
- AUClast/D [1]: 351 h·ng/mL per mg/kg and 293 h·ng/mL per mg/kg and 348 h·ng/mL per mg/kg
- C0 [1]: 0.563 µg/mL and 0.884 µg/mL
- MRTInf_obs [1]: 1.41 h
- T1/2 [1]: 1.48 h and 1.46 h
- Vss_obs [1]: 4.42 L/kg and 5.04 L/kg and 4.00 L/kg
- Concentration (mouse (CD1) po 30 mg/kg, 0.25 h, individual Mouse 4-6, 30 mg/kg): 0.0559 µg/mL and 0.0237 µg/mL and 0.0128 µg/mL
- Concentration (mouse (CD1) po 30 mg/kg, 0.5 h, individual Mouse 4-6, 30 mg/kg): 0.12 µg/mL and 0.023 µg/mL and 0.0222 µg/mL
- Concentration (mouse (CD1) po 30 mg/kg, 1 h, individual Mouse 4-6, 30 mg/kg): 0.153 µg/mL and 0.0169 µg/mL and 0.0451 µg/mL
- Concentration (mouse (CD1) po 30 mg/kg, 2 h, individual Mouse 4-6, 30 mg/kg): 0.0911 µg/mL and 0.112 µg/mL
- Concentration (mouse (CD1) po 30 mg/kg, 4 h, individual Mouse 4-6, 30 mg/kg): 0.143 µg/mL and 0.123 µg/mL
- Concentration (mouse (CD1) po 30 mg/kg, 8 h, individual Mouse 4-6, 30 mg/kg): 0.0348 µg/mL and 0.0171 µg/mL and 0.0164 µg/mL
- Concentration (mouse (CD1) po 30 mg/kg, 24 h, individual Mouse 4-6): BLOQ
- AUC_%Extrap_obs (mouse (CD1) po 30 mg/kg, Mean): 9.8%
- AUClast/D (mouse (CD1) po 30 mg/kg, Mean): 22.5 h·ng/mL per mg/kg
- F (mouse (CD1) po 30 mg/kg, Mean): 7.47%
- AUCInf [2]: 0.681 µg·h/mL and 0.662 µg·h/mL
- AUC_%Extrap_obs [2]: 14.2% and 7.97% and 7.15%
- AUClast [2]: 0.627 µg·h/mL and 0.615 µg·h/mL
- AUClast/D [2]: 26.2 h·ng/mL per mg/kg and 20.9 h·ng/mL per mg/kg and 20.5 h·ng/mL per mg/kg
- Cmax [2]: 0.143 µg/mL and 0.123 µg/mL
- F [2]: 9.09% and 6.76% and 6.57%
- MRTInf_obs [2]: 4.24 h and 3.97 h
- T1/2 [2]: 2.20 h and 2.00 h
- Concentration (mouse (CD1) sc 30 mg/kg, 0.25 h, individual Mouse 7-9, 30 mg/kg): 0.093 µg/mL and 0.0701 µg/mL
- Concentration (mouse (CD1) sc 30 mg/kg, 0.5 h, individual Mouse 7-9, 30 mg/kg): 0.101 µg/mL and 0.0666 µg/mL
- Concentration (mouse (CD1) sc 30 mg/kg, 1 h, individual Mouse 7-9, 30 mg/kg): 0.107 µg/mL and 0.0765 µg/mL
- Concentration (mouse (CD1) sc 30 mg/kg, 2 h, individual Mouse 7-9, 30 mg/kg): 0.115 µg/mL and 0.0811 µg/mL
- Concentration (mouse (CD1) sc 30 mg/kg, 4 h, individual Mouse 7-9, 30 mg/kg): 0.0918 µg/mL and 0.105 µg/mL
- Concentration (mouse (CD1) sc 30 mg/kg, 8 h, individual Mouse 7-9, 30 mg/kg): 0.049 µg/mL and 0.042 µg/mL
- Concentration (mouse (CD1) sc 30 mg/kg, 24 h, individual Mouse 7-9, 30 mg/kg): 0.00288 µg/mL and 0.00205 µg/mL
- AUC_%Extrap_obs (mouse (CD1) sc 30 mg/kg, Mean): 1.60%
- AUClast/D (mouse (CD1) sc 30 mg/kg, Mean): 33.9 h·ng/mL per mg/kg
- F (mouse (CD1) sc 30 mg/kg, Mean): 10.3%
- AUCInf [3]: 1.119 µg·h/mL and 0.983 µg·h/mL
- AUC_%Extrap_obs [3]: 2.26% and 1.48% and 1.07%
- AUClast [3]: 1.102 µg·h/mL and 0.973 µg·h/mL
- AUClast/D [3]: 32.7 h·ng/mL per mg/kg and 36.7 h·ng/mL per mg/kg and 32.4 h·ng/mL per mg/kg
- Cmax [3]: 0.115 µg/mL and 0.105 µg/mL
- F [3]: 9.94% and 11.1% and 9.75%
- MRTInf_obs [3]: 5.82 h and 5.73 h
- T1/2 [3]: 3.98 h and 3.56 h
- Tmax [3]: 1 h
Structure (SMILES): O=C1CCC(N2C(=O)c3cccc(NCCOCCOCCNCc4ccc(-n5cc(NC(=O)c6coc(-c7ccnc(NCC8CC8)c7)n6)c(C(F)F)n5)cc4)c3C2=O)C(=O)N1 (stereo not shown) [I-210, 2-[2-(Cyclopropylmethylamino)-4-pyridyl]-N-[3-(difluoromethyl)-1-[4-[[2-[2-[2-[[2-(2,6-dioxo-3-piperidyl)-1,3-dioxoisoindolin-4-yl]amino]ethoxy]ethoxy]ethylamino]methyl]phenyl]pyrazol-4-yl]oxazole-4-carboxamide]
- Cl_obs [1]: 2.8 L/h/kg and 3.35 L/h/kg and 2.83 L/h/kg

Reference: US10874743B2, “IRAK degraders and uses thereof” (Kymera Therapeutics, Inc., priority 2017, dated 2020)
